Patent US20250011368A1, “DLL3 TARGETING PEPTIDES AND CONSTRUCTS THEREOF” (MARIANA ONCOLOGY INC., priority 2023, published 2025)
Numbered stars: 1 amine (or outer) side, 2 acyl side, 3 side chain; on linkers, the order of the positions; unused ones are H or OH. Bridge positions count the residues as written; N and C are the ends. Square brackets hold non-standard residues; d marks the D form. Peptide text beside a SMILES is read from it. * marks the point of attachment. Ala(piperidin-4-yl) = O=C([C@H](CC1CCN([*:3])CC1)N[*:1])[*:2]; DOTA = O=C(O)CN1CCN(CC(=O)O)CCN(CC(=O)*)CCN(CC(=O)O)CC1; Phe(4-CF3) = N[C@@H](Cc1ccc(C(F)(F)F)cc1)C(=O)O; Trp(5-F) = N[C@@H](Cc1c[nH]c2ccc(F)cc12)C(=O)O; Trp(7-aza) = N[C@@H](Cc1c[nH]c2ncccc12)C(=O)O; Pro(trans-4-F) = O=C(O)[C@@H]1C[C@@H](F)CN1; 2Nal = N[C@@H](Cc1ccc2ccccc2c1)C(=O)O; Nva(3-Et) = CCC(CC)[C@H](N)C(=O)O; 3Pal = N[C@@H](Cc1cccnc1)C(=O)O; 4Pal = N[C@@H](Cc1ccncc1)C(=O)O

Tests used:
[1] = tested on: SHP-77 tumors; assay: Ex vivo biodistribution of radiolabeled peptides in nude mice bearing SHP-77 tumors; details: [177Lu]Lu labelling, nude mice bearing SHP-77 tumors (n = 3), 24 hours post-injection
Description: Mice were intravenously injected (via the lateral tail vein) with a bolus dose of the radiolabeled peptides for ex vivo biodistribution studies when tumor volumes were in range of 200-400 mm^3 for xenograft mice and when age of the mice was 5-7 weeks for tumor naïve mice studies. To assess the amount of radionuclide injected into individual mice the syringe was assayed in a dose calibrator before and after injection for [^177Lu]Lu-peptide.
Mice were euthanized at pre-determined time points and selected tissues were resected and collected into pre-weighed tubes. The tubes were then reweighed post resection, the difference giving the weight of each tissue. Radioactivity in each tissue was measured using a gamma counter. Counts were decay corrected to the time of injection and percentage of injected activity per gram (% IA/g) was calculated for each tissue based on the injected activity into each individual mouse. Injected activity was converted to counts based on the sensitivity of the gamma counter. The counts in tissue were then converted to the percentage of injected activity and this was divided by the mass of tissue to give % IA/g.

[2] = target: T1, human DLL3 (Homo sapiens, UniProt Q9NYJ7); assay: Affinity determination by Surface Plasmon Resonance (SPR); type: binding; details: 25° C., biotinylated human DLL3 immobilized on streptavidin sensor chip, 1:1 binding model; read-out: SPR KD
T1 sequence (Q9NYJ7 27-618): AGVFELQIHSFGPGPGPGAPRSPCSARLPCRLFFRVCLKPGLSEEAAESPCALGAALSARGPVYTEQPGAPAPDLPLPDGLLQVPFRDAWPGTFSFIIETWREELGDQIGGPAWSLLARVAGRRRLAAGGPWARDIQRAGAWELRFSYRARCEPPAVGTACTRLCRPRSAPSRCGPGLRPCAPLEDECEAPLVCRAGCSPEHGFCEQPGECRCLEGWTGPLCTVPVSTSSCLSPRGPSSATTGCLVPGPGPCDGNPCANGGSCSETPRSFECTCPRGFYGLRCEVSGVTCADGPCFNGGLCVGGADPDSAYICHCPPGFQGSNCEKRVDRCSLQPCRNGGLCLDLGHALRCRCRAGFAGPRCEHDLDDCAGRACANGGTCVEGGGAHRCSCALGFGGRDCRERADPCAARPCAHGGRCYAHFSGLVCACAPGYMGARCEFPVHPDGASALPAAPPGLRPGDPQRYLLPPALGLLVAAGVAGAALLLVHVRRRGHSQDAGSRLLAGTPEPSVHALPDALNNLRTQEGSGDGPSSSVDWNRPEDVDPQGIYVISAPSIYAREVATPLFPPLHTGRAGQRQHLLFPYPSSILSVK
How it was run: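 Kinetic and affinity constants were derived by fitting sensorgrams to a 1:1 binding model. Graded compound concentrations flowed at 100 μL/minute in 20 mM phosphate running buffer with 2% DMSO over streptavidin-immobilized biotinylated human DLL3, reference-subtracted.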

[3] = tested on: CT26.DLL3 cells; assay: Cell binding (total uptake) of [177Lu]Lu-test peptide, CT26.DLL3 cells; type: cell-based; details: 1 hour at 37° C.
Description: (§1) [^177Lu]LuCl3 was received from venders in HCl solution. For every mCi of [^177Lu]LuCl3 added to the reaction vial (1.5 mL Eppendorf vial), ammonium acetate buffer (0.2 M, pH 4.9, 100 μL, containing 1% w/v ascorbic acid and 6% v/v ethanol) and peptide conjugate (1 nmol). A peptide conjugate of the present disclosure is also referred to herein as a “chelator-peptide”. The pH of the solution was determined to be approximately 5 by using pH strips. The reaction vial was incubated at 80° C., 700 RPM for 17-20 minutes. A sample from the reaction was analyzed by RP-HPLC using an Agilent Infinity II 1260 HPLC to determine reaction completion and radiochemical purity of [^177Lu]Lu-chelator-peptide. HPLC conditions: Waters XBridge BEH C18 Column, 130 Å, 3.5 um, 4.6 mm×250 mm; mobile phase: Solvent A=water (with 0.1% formic acid), solvent B=acetonitrile (with 0.1% formic acid). Gradients: 25-45% B in 10 minutes, 45-65% B in 12 minutes, 65-90% in 6 minutes at a flow rate of 0.5 mL/minute. Required amounts of the product was formulated in 1% PBSA for cell studies.
(§2) The study was conducted using SHP-77, CT26.WT, and CT26.DLL3 cells (Table 7) Adherent cell studies: The cells were cultured in appropriate culture media (20 mL) in tissue culture treated T150 flasks at 37° C. and 5% CO2. Adherent cells were detached (60-70% confluent) using 5 mL Versene at 37° C. for 3 minutes. After confirming the viability using countess and count of detached cells using Trypan blue, the cells were centrifuged at 4° C. for 5 minutes (1,000 rpm). The cell pellet obtained was washed once with PBS and resuspended in 1% PBSA to obtain the desired cell concentration (5-25 million cells/mL).
(§3) Cell numbers used for the assay were in the range of 5 million cells/condition −25 million cells/condition.
(§4) Total uptake: Cells were incubated with 300 μL (0.8 μCi) of the incubation buffer (containing radiolabeled peptide [^177Lu] Lu-test peptide) for 1 hour at 37° C. (Table 8). Post incubation, the cells were pelleted and washed 2 times using cold PBS+1% BSA. The supernatant and washes were combined and counted together as “unbound fraction” in a gamma counter. The cells were then resuspended in 300 μL of 1% PBS+1% BSA and counted in the gamma counter as “bound fraction”.
(§5) In these Tables, “A” represents %≤25; “B” represents 25<%≤50; “C” represents %>50.

[4] = tested on: CT26.DLL3 cells; assay: Internalization (out of bound fraction) of [177Lu]Lu-test peptide, CT26.DLL3 cells; type: cell-based; details: 1 hour at 37° C., glycine pH 2.5 wash
Description: as §1, §2, §3, §4
Internalization: The resuspended cells in 300 μl of 1% PBSA and counted in the gamma counter as “bound fraction” were collected in 1.5 mL Eppendorf tube and pelleted. The pelleted cells were incubated with 300 μl of 50 mM Glycine pH=2.5 for 3 minutes and then pelleted discarding the supernatant. This process was repeated one more time. The pelleted cells were washed with 300 μl of cold 1% PBSA and then resuspended in 300 μl 0.3M NaOH. This was counted in the gamma counter as “internalized fraction”.
as §5

[5] = target: T2, DLL3 on SHP-77 cells (human, UniProt Q9NYJ7 27-618); assay: 177Lu-peptide bound to SHP-77 cells, gamma counting; letter grade, key in paragraph 629
T2 construct: SHP-77 cells are human-derived, non-engineered SCLC cells
T2 sequence: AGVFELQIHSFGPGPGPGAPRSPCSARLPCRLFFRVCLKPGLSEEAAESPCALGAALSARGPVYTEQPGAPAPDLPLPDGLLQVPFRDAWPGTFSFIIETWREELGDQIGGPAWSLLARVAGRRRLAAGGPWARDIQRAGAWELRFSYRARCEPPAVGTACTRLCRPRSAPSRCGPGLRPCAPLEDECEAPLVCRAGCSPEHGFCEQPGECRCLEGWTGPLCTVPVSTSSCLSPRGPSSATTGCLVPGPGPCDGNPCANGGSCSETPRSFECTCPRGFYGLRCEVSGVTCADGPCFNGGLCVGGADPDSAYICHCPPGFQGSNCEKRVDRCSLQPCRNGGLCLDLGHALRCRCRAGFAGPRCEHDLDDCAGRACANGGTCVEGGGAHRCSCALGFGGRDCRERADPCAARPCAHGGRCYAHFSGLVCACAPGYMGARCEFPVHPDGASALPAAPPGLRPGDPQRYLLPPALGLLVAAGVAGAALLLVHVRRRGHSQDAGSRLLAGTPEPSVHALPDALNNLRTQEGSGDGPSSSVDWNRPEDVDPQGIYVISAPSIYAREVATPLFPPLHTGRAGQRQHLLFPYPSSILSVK
Description: as §2
(§6) Total uptake: Cells were incubated with 300 μL (0.8 μCi) of the incubation buffer (containing radiolabeled peptide [¹⁷⁷Lu] Lu-test peptide) for 1 hour at 37° C. (Table 8). Post incubation, the cells were pelleted and washed 2 times using cold PBS+1% BSA. The supernatant and washes were combined and counted together as “unbound fraction” in a gamma counter. The cells were then resuspended in 300 μL of 1% PBS+1% BSA and counted in the gamma counter as “bound fraction”.

[6] = target: T3, DLL3 on CT26.DLL3 cells (Homo sapiens (Human), UniProt Q9NYJ7 27-618); assay: 177Lu-peptide bound to CT26.DLL3 cells, gamma counting; letter grade, key in paragraph 629
T3 construct: CT26.DLL3 are engineered cells to express DLL3
T3 sequence: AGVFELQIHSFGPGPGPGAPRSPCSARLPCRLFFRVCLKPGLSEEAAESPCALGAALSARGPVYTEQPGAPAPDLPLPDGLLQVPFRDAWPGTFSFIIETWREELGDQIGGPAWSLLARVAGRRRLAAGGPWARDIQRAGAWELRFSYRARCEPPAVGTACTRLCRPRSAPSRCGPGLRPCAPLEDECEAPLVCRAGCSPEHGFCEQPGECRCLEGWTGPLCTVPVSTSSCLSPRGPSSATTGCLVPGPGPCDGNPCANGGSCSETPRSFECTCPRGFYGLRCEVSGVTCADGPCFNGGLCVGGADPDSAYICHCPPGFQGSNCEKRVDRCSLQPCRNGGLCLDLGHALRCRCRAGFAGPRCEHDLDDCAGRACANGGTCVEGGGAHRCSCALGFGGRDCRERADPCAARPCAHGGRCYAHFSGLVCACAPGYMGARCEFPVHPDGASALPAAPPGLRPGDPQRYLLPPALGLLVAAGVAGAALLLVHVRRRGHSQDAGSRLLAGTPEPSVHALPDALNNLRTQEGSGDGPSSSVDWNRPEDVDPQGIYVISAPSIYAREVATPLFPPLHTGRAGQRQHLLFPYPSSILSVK
Description: as §2, §6

Molecule: CC[C@H](C)[C@H](NC(=O)[C@@H](NC(=O)[C@H](Cc1c[nH]c2ccccc12)NC(C)=O)[C@@H](C)O)C(=O)N[C@H]1CSSC[C@@H](C(=O)N[C@@H](Cc2c[nH]c3ccccc23)C(=O)N2CCC[C@H]2C(=O)N[C@H](CCCCNC(=O)CN2CCN(CC(=O)O)CCN(CC(=O)O)CCN(CC(=O)O)CC2)C(N)=O)NC(=O)[C@H](CC(=O)O)NC(=O)[C@H](Cc2cnc[nH]2)NC(=O)[C@H](Cc2ccc3ccccc3c2)NC(=O)[C@H](Cc2ccncc2)NC(=O)[C@H](CC(N)=O)NC1=O [compound 266, Ac-W-T-I-C(3)-N-(4Pya)-(2Nal)-H-D-C(3)-W-P-[D-Lys(DOTA)]-NH2] (Ac-WTICN[4Pal][2Nal]HDCWP[dK](DOTA)-NH2; disulfide 4-10)
- kidney uptake (% IA/g) [1]: C (0 < % IA/g ≤ 10 in kidney)
- tumor uptake (% IA/g) [1]: A (0 < % IA/g ≤ 5 in tumor)
- Kd [2]: < 1 nM
- % Binding [3]: A (%≤25)
- % Internalization (out of bound fraction) [4]: A (%≤25)

Molecule: CC[C@H](C)[C@H](NC(=O)[C@@H](NC(=O)[C@H](Cc1c[nH]c2ccccc12)NC(C)=O)[C@@H](C)O)C(=O)N[C@H]1CSSC[C@@H](C(=O)N[C@@H](Cc2c[nH]c3ccccc23)C(=O)N2CCC[C@H]2C(=O)N[C@H](CCCCNC(=O)CN2CCN(CC(=O)O)CCN(CC(=O)O)CCN(CC(=O)O)CC2)C(N)=O)NC(=O)[C@H](CC(=O)O)NC(=O)[C@H](Cc2cnc[nH]2)NC(=O)[C@H](Cc2ccc3ccccc3c2)NC(=O)[C@H](CC2CCNCC2)NC(=O)[C@H](CC(N)=O)NC1=O [compound 267, Ac-W-T-I-C(3)-N-[3-(4-piperidinyl)-Ala]-(2Nal)-H-D-C(3)-W-P-[D-Lys(DOTA)]-NH2] (Ac-WTICN[Ala(piperidin-4-yl)][2Nal]HDCWP[dK](DOTA)-NH2; disulfide 4-10)
- kidney uptake (% IA/g) [1]: C (0 < % IA/g ≤ 10 in kidney)
- tumor uptake (% IA/g) [1]: A (0 < % IA/g ≤ 5 in tumor)
- Kd [2]: < 1 nM
- % Binding [3]: A (%≤25)
- % Internalization (out of bound fraction) [4]: B (25<%≤50)

Molecule: Ac-(5Fluoro-W)-T-(CHA)-C(3)-N-N-(2Nal)-H-D-C(3)-(7Aza-W)-(trans4Fluoro-P)-[D-Lys(DOTA)]-NH2 [compound 245]
- kidney uptake (% IA/g) [1]: D (% IA/g > 10 in kidney)
- tumor uptake (% IA/g) [1]: A (0 < % IA/g ≤ 5 in tumor)
- Kd [2]: < 1 nM
- % Binding [3]: A (%≤25)
- % Internalization (out of bound fraction) [4]: B (25<%≤50)

Molecule: Ac-WTICNN[2Nal]HDCWPK(DOTA)-NH2 (disulfide 4-10; also: 177Lu chelated in DOTA, also called [177Lu]Lu-test peptide) [[177Lu]Lu-labelled Cpd No. 166]
- % Binding [5]: ≤ 25%

Molecule: Ac-WTIC[3Pal]N[2Nal]HDCWP[dK](DOTA)-NH2 (disulfide 4-10; also: 177Lu in the DOTA chelator, also called [177Lu]Lu-test peptide) [[177Lu]Lu-labelled Cpd No. 263]
- % Binding [6]: ≤ 25%

Molecule: Ac-WTIC[4Pal]N[2Nal]HDCWP[dK](DOTA)-NH2 (disulfide 4-10; also: 177Lu in the DOTA chelator, also called [177Lu]Lu-test peptide) [[177Lu]Lu-labelled Cpd No. 264]
- % Binding [6]: ≤ 25%

Molecule: Ac-[Trp(5-F)]T[Nva(3-Et)]CNN[Phe(4-CF3)]HDC[Trp(7-aza)][Pro(trans-4-F)][dK](DOTA)-NH2 (disulfide 4-10; also: 177Lu complexed in the DOTA chelator) [[177Lu]Lu-labelled Cpd No. 146]
- % Binding [5]: < 25%
